According to PMC12503906, “Novel Pyrazolo [1,5‐a]−1,3,5‐Triazine Derivatives as CDK7 Inhibitors: Synthesis and Biological Insights in Pancreatic Ductal Adenocarcinoma Models” (Chemmedchem, 2025):
Like-named read-outs stand apart in the source and are kept apart here.

Legend:
[1] = tested on: PATU‐T; assay: SRB chemosensitivity assay, PATU‐T cells; assay type: cell-based; settings: read-out: IC50 PATU‐T
Experimental: (§1) Three lines of immortalized PDAC cells were selected as representative phenotypes: mesenchymal (PATU‐T), quasimesenchymal (PANC‐1), and an epithelial clone of SUIT 2 cells (SUIT 2.28). Cells were cultured in noncoated T‐75 and T‐25 flasks under adherent conditions, using 1× DMEM (Gibco, 41,966,029) for PATU‐T and RPMI (Gibco, 21,875,034) for SUIT 2.28 and PANC‐1, both supplemented with 10% NBCS and 1% P/S. Additional employed models were the PDAC3 cells, a primary cell culture, the PSCs, which were immortalized healthy pancreatic cells, and the PATU‐T‐GR, which was a gemcitabine resistant model of PATU‐T. PDAC3 and PSCs were cultivated using complete RPMI medium, while PATU‐T‐GR required complete DMEM medium. For seeding, cells were detached with Trypsin‐EDTA (0.05%) (GibcoTM, 25,300–096) and were consequently counted using the Automated Cell Counter (Luna‐II, Westburg). Cells were then plated on 96‐ or 6‐well plates depending on the planned experiment.
(§2) The Sulforhodamine B (SRB) chemosensitivity assay was used to measure cytotoxicity and cell proliferation post drug treatment. At day 0, 3–6 × 10^3 cells were seeded in a 96‐well plate, depending on the cell line. At day 1, cells were attached and ready to be treated. For the calculation of the IC50, drug dilutions for the compounds 1b, 1c, 1d, 1e, 1g, 1hr, 1i, 1j, and LDC4297 (MedChemExpress, HY‐12,653) were prepared in dilution trays and eight different concentrations were included. These were added in triplicates to the cells, which were then incubated for […] at 37 °C in 5% CO2. During day 1, the control plate was fixed with 50% Trichloroacetic acid (TCA), as intended to be the baseline plate used for the normalization of the data. 72 h post‐treatment, the cells were fixed with TCA, and placed at 4 °C for about 2 h. The plates were then washed with distillated water and left to dry under the hood with ventilation. Subsequently, plates were stained with 0.4% SRB for 15 min and washed with 1% acetic acid to remove excess stain. Once dried again, the protein‐bound SRB was dissolved in 10 mM TRIS, and the plates were placed on a shaker for 10 min per plate. Lastly, the absorbance was measured at 492 nm with a spectrophotometer (Synergy HT, BioTek). The absorbance data obtained were normalized to the day 1 control, and the percentage of cell growth in relation to the control was calculated using the following formula. (1) %Cell growth=Mean OD treatment−Mean OD day0/Mean OD control−Mean OD day0×100
(§3) The percentage of proliferation and their respective standard deviations were used to perform statistical analysis in GraphPad Prism software v 10 (GraphPad Software, San Diego, CA). Data were normalized to the day 0 control and to their own untreated 72 h control. These were transformed into logarithmic data, and log(inhibitor) versus response analysis was performed for obtaining the IC50 values per cell lines. Each experiment was conducted in triplicates.

[2] = tested on: PANC‐1; assay: SRB chemosensitivity assay, PANC‐1 cells; assay type: cell-based; settings: Homo sapiens, read-out: IC50 PANC‐1
Experimental: as §1, §2, §3

[3] = tested on: SUIT 2.28; assay: SRB chemosensitivity assay, SUIT 2.28 cells; assay type: cell-based; settings: read-out: IC50 SUIT 2.28
Experimental: as §1, §2, §3

[4] = tested on: PATU‐T; assay: Wound healing assay, PATU‐T; assay type: cell-based; settings: 1 × IC50 and 4 × IC50, 4 to 24 h
Experimental: The wound healing assay was used to test the migratory ability of the selected cells post‐treatment. Cells (5 × 10^4 /well) were seeded on 96‐well. After 24 h, cells reached the optimal 100% confluency, and an artificial wound was created with a 96‐well Pintool Scratcher. The cells were immediately washed with complete medium, in order to remove cell debris after the scratch, and images of the wells were captured at time 0 h, right before the addition of the treatment. Each drug (1b and 1g) was previously diluted in the respective medium at two different concentrations: 1 × IC50 and 4 × IC50 (according to the cell specific IC50 value) and were then added to the cells. Images were then taken at timepoints 4, 8, 20, and 24 h using the Leica microscope with a JAI TMC‐137 camera to assess wound closure. The images were analyzed using the Universal Grab 6.3 software (DCILabs), and the obtained data were used to determine the percentage of migration of the cells, using the following formula. (2) % Migration=Mean width of the wound atT=0−Mean width of the wound atT=X/Mean width of the wound atT=0×100

[5] = tested on: PDAC3; assay: SRB chemosensitivity assay, primary PDAC3 cells; assay type: cell-based; settings: PDAC-3, SRB, primary cell line, average ± SEM, triplicate; read-out: IC50 PDAC3
Experimental: as §1, §2, §3

[6] = tested on: PATU‐T GR; assay: SRB chemosensitivity assay, gemcitabine resistant PATU‐T GR cells; assay type: cell-based; settings: SRB, gemcitabine resistant PATU‐T GR, average ± SEM, triplicate; read-out: IC50 PATU‐GR
Experimental: as §1, §2
The percentage of proliferation and their respective standard deviations were used to perform statistical analysis in GraphPad Prism software v 10 (GraphPad Software, San Diego, CA). Data were normalized to the day 0 control and to their own untreated 72 h control. […]

[7] = tested on: PSC; assay: SRB chemosensitivity assay, pancreatic stellate cells (PSC); assay type: cell-based; settings: Fibroblast; SRB, nontumorous immortalized pancreatic fibroblasts, average ± SEM, triplicate; read-out: IC50 PSC
Experimental: as §1
as §2, with “The plates were then washed with distillated water and left to dry under the hood with ventilation. Subsequently, plates were stained with 0.4% SRB for 15 min and washed with 1% acetic acid to remove excess stain. Once dried again, the protein‐bound SRB was dissolved in 10 mM TRIS, and the plates were placed on a shaker for 10 min per plate.” left out, “(1) %Cell growth=Mean OD treatment−Mean OD day0/Mean OD control−Mean OD day0×100” left out

[8] = tested on: PDAC cell lines; assay: SRB chemosensitivity assay, ranges over several PDAC cell lines; assay type: cell-based; settings: range across the different cell lines
Experimental: as §1, with “Cells were then plated on 96‐ or 6‐well plates depending on the planned experiment.” left out
The Sulforhodamine B (SRB) chemosensitivity assay was used to measure cytotoxicity and cell proliferation post drug treatment. […] At day 1, cells were attached and ready to be treated. […] Lastly, the absorbance was measured at 492 nm with a spectrophotometer (Synergy HT, BioTek). The absorbance data obtained were normalized to the day 1 control, and the percentage of cell growth in relation to the control was calculated using the following formula. […]

[9] = tested on: CDK7; settings: selective inhibition of CDK7, quoted in introduction; cited from earlier work
[10] = target: CDK7 (Homo sapiens, UniProt P50613); assay: In vitro CDK7 enzyme inhibition assay (ADP‐Glo); assay type: biochemical; design: purchased Promega Corporation VA7402; settings: ADP‐Glo assay, mean of triplicate experiments; read-out: CDK7 inhibition activity IC50
Sequence of CDK7 (Homo sapiens, UniProt P50613) (P50613 whole entry): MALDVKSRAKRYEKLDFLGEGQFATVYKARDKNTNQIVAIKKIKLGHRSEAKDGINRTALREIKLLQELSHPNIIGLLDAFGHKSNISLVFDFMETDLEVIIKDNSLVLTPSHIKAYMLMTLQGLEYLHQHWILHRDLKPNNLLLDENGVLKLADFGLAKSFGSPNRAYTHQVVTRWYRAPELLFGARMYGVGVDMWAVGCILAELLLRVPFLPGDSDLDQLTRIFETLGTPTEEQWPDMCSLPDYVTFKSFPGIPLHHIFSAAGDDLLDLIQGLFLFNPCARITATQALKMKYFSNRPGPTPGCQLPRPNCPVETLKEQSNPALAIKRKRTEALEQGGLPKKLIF
Sequence of CDK7 (Homo sapiens, UniProt P50613) (P51946 whole entry partner): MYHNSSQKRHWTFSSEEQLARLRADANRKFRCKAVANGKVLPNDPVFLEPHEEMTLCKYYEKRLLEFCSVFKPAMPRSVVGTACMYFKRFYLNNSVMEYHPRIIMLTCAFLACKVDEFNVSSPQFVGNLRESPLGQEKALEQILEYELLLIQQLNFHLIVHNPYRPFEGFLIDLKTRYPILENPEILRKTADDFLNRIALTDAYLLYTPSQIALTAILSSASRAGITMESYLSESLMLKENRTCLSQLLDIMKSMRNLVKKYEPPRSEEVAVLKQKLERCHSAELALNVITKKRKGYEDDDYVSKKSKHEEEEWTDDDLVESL
Sequence of CDK7 (Homo sapiens, UniProt P50613) (P51948 whole entry partner): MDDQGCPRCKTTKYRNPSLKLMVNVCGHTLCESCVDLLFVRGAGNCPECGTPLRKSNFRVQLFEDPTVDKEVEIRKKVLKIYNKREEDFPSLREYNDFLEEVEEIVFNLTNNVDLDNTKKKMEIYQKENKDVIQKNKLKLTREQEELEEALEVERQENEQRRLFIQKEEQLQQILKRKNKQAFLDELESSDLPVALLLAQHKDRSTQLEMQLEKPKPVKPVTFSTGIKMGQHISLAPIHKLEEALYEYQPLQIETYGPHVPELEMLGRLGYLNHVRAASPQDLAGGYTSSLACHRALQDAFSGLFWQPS
Experimental: The CDK7 enzyme inhibition assay was conducted using the ADP‐Glo Kinase Assay (VA7402, Promega Corporation, Madison, WI, USA) according to the manufacturer's instructions. In this assay, CDK7 catalyzes the conversion of ATP to ADP. The reaction was terminated by adding the ADP‐Glo reagent, which depletes residual ATP. Subsequently, the kinase detection reagent was introduced to convert ADP back into ATP, which was then measured via a luciferase reaction, producing luminescence. The assay was carried out at room temperature, using DMSO as the solvent for the tested compounds. Each compound was tested at eight different concentrations. […] Luminescence was recorded using a BioTek plate reader (BioTek Instruments Inc.), as previously described.^[ [39] ^] The percentage of enzyme inhibition was determined for each compound at different concentrations, and mean IC50 values of triplicate experiments were calculated using GraphPad Prism.

[11] = target: T1, phosphorylated CDK7 (p‐CDK7) (Homo sapiens, UniProt P50613); assay: Phospho‐CDK7 (Thr170) cell‐based ELISA, PDAC3; design: endogenous in cells; host or cells: PDAC3 primary cells; settings: PDAC3, 4 × IC50, ELISA
T1 sequence (P50613 2-346 limits assumed): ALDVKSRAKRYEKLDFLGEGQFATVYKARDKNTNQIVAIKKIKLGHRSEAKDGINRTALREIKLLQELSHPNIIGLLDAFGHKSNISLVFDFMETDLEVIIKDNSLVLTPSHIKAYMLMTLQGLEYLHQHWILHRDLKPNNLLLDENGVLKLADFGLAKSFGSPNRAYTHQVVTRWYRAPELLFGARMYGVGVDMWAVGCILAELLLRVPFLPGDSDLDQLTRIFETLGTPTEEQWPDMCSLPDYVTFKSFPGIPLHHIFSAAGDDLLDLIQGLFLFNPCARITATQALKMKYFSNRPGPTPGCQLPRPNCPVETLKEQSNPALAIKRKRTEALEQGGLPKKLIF
T1 sequence (P51946 whole entry partner): as the sequence (P51946 whole entry partner) above
T1 sequence (P51948 whole entry partner): as the sequence (P51948 whole entry partner) above
Experimental: (§4) To detect CDK7 and phospho‐CDK7 levels at Thr170 residue after treatment, an enzyme‐linked immunosorbent assay (Biomatik, Phospho‐CDK7 (Thr170) Colorimetric Cell‐Based ELISA Kit, Cat# EKA51274) was performed according to the manufacturer's protocols. […] The absorbance was read at 450 nm using a microplate reader.

[12] = target: T1, phosphorylated CDK7 (p‐CDK7); assay: Phospho‐CDK7 (Thr170) cell‐based ELISA, SUIT 2.28; design: two PDAC preclinical models (SUIT 2.28 and PDAC3); endogenous in cells; host or cells: SUIT 2.28; settings: SUIT 2.28, 4 × IC50, ELISA
Experimental: as §4

[13] = SRB, 72 h of treatment, average ± SEM, triplicate
[14] = PANC-1, SRB, 72 h of treatment, average ± SEM, triplicate

`COc1ccc2[nH]cc(-c3cc4ncnc(N)n4n3)c2c1` [Compound 1e, 7‐(5‐Methoxy‐1H‐indol‐3‐yl)pyrazolo[1,5‐a][1,3,5]triazin‐4‐amine] showed an IC50 [1, 13] of 4700 ± 900 nM, an IC50 [2, 14] of 8800 ± 1200 nM and an IC50 [3, 13] of 500 ± 100 nM. For the same compound, the “inhibition of cell migration” value [4] was “greatest inhibitory effect”.

`Nc1ncnc2cc(-c3c[nH]c4ccc(F)cc34)nn12` [Compound 1d, 7‐(5‐Fluoro‐1H‐indol‐3‐yl)pyrazolo[1,5‐a][1,3,5]triazin‐4‐amine] gave an IC50 [1, 13] of 3500 ± 700 nM, an IC50 [2, 14] of 9600 ± 800 nM and an IC50 [3, 13] of 600 ± 100 nM.

With `CC(C)c1cnn2c(NCc3ccccc3-n3cccn3)nc(OC3CCCNC3)nc12` (stereo not shown) [LDC4297, reference compound] the IC50 [1, 13] was 30 ± 10 nM, the IC50 [2, 14] was 20 ± 10 nM and the IC50 [3, 13] was 30 ± 10 nM. It also gave an IC50 [5] of 100 ± 20 nM, an IC50 [6] of 450 ± 90 nM and an IC50 [7] of 110 ± 20 nM. For the same compound, the IC50 [8] was 20 to 400 nM, the IC50 [9] was under 5 nM and the IC50 [10] was 7.5 nM. The “p‐CDK7 expression vs untreated” value [11] was “significant decrease in p‐CDK7 levels” and the “p‐CDK7 expression vs untreated” value [12] was “significant decrease in p‐CDK7 levels”.

Compound `Cn1cc(-c2cc3ncnc(N)n3n2)c2cc(F)ccc21` [Compound 1i, 7‐(5‐Fluoro‐1‐methyl‐1H‐indol‐3‐yl)pyrazolo[1,5‐a][1,3,5]triazin‐4‐amine] has an IC50 ([1]; 72 h) of 5500 ± 1100 nM, an IC50 ([2]; PANC-1, 72 h) of 2200 ± 400 nM and an IC50 ([3]; 72 h) of 500 ± 100 nM.

`Nc1ncnc2cc(-c3c[nH]c4ccc(Cl)cc34)nn12` [Compound 1c, 7‐(5‐Chloro‐1H‐indol‐3‐yl)pyrazolo[1,5‐a][1,3,5]triazin‐4‐amine] gave an IC50 [1, 13] of 1900 ± 600 nM, an IC50 [2, 14] of 8700 ± 1500 nM and an IC50 [3, 13] of 400 ± 100 nM.

With `Cn1cc(-c2cc3ncnc(N)n3n2)c2cc(Cl)ccc21` [Compound 1h, 7‐(5‐Chloro‐1‐methyl‐1H‐indol‐3‐yl)pyrazolo[1,5‐a][1,3,5]triazin‐4‐amine] the IC50 ([1]; 72 h) was 2000 ± 300 nM, the IC50 ([2]; PANC-1, 72 h) was 3100 ± 700 nM and the IC50 ([3]; 72 h) was 1600 ± 300 nM.

For `CC(C)c1ccccc1CNc1nc(OC2CCN(C)CC2)nc2c(C(C)C)cnn12` [LDC3140], the IC50 [9] is listed as under 5 nM.

In the case of `COc1ccc2c(c1)c(-c1cc3ncnc(N)n3n1)cn2C` [Compound 1j, 7‐(5‐Methoxy‐1‐methyl‐1H‐indol‐3‐yl)pyrazolo[1,5‐a][1,3,5]triazin‐4‐amine], the IC50 ([1]; 72 h) is reported as 4700 ± 800 nM, the IC50 ([2]; PANC-1, 72 h) is reported as 2400 ± 500 nM and the IC50 ([3]; 72 h) is reported as 500 ± 100 nM.
